Experiment [1] has as its system HCT116 (colorectal carcinoma). The experiment can be described thus: MTT antiproliferation assay, HCT116. The class given is cell-based. To be noted: Homo sapiens, HCT-116, read-out: IC50 (µM) HCT- 116.
Another experiment has as its target CDK9 (Homo sapiens, UniProt P50750). Put plainly: biochemical.
Experiment [2] relates to MCF7 (mammary gland breast cancer). The experiment can be described thus: MTT antiproliferation assay, MCF7. The class given is cell-based. To be noted: Homo sapiens, MCF7, read-out: IC50 (µM) MCF- 7. (Formazan colour is commonly taken as a measure of viable cells.)
Experiment [3] relates to HeLa (cervical epithelioid carcinoma). Put plainly: MTT antiproliferation assay, HeLa. To be noted: Homo sapiens, HeLa, read-out: IC50 (µM) Hela, MTT assay, HeLa cells. The class given is cell-based, human.
For the next experiment, the target named is CDK12 (Homo sapiens, UniProt Q9NYV4). The experiment can be described thus: CDK12 inhibition assay. The class given is biochemical.
In experiment [4] the test system is WI- 38 (embryonic lung fibroblasts). The experiment can be described thus: MTT assay, WI-38 fibroblasts. The class given is cell-based. To be noted: Homo sapiens, WI-38, read-out: IC50 (µM) WI- 38.
Experiment [5] deals with HepG2 (hepatocellular carcinoma). Put plainly: MTT antiproliferation assay, HepG2. The class given is cell-based, human. To be noted: Homo sapiens, HepG2, read-out: IC50 (µM) HePG- 2, MTT assay, HepG2 cells.

Sequence of CDK9 (P50750 whole entry): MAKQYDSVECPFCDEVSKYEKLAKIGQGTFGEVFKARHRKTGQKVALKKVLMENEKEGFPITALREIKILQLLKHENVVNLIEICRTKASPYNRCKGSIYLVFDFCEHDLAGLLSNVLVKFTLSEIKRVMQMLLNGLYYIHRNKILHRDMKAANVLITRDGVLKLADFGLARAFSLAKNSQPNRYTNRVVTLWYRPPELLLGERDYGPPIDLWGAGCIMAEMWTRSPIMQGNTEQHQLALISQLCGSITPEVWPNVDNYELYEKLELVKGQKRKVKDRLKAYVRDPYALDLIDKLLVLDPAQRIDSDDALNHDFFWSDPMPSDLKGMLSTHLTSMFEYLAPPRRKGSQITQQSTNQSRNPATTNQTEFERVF
Sequence of CDK9 (O60563 whole entry partner): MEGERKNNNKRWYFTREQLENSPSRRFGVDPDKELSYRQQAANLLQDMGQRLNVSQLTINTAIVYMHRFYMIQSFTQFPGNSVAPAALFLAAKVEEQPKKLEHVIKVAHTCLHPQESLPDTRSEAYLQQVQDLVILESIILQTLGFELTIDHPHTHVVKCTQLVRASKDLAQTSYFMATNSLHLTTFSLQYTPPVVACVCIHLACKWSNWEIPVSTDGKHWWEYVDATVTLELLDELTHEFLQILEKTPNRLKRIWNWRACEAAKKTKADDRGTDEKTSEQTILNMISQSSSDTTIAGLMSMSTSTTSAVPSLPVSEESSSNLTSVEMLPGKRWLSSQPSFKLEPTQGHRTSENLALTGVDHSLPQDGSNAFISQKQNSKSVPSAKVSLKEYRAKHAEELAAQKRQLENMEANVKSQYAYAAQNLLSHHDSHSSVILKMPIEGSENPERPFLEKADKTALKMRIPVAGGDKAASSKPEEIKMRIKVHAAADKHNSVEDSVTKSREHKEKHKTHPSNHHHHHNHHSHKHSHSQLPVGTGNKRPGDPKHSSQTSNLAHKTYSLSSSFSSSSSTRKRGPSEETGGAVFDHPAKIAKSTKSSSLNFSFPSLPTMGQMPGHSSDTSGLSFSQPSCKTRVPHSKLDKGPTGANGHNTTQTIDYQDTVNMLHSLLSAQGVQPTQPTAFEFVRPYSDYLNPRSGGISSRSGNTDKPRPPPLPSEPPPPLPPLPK
Sequence of CDK12 (Q9NYV4 whole entry): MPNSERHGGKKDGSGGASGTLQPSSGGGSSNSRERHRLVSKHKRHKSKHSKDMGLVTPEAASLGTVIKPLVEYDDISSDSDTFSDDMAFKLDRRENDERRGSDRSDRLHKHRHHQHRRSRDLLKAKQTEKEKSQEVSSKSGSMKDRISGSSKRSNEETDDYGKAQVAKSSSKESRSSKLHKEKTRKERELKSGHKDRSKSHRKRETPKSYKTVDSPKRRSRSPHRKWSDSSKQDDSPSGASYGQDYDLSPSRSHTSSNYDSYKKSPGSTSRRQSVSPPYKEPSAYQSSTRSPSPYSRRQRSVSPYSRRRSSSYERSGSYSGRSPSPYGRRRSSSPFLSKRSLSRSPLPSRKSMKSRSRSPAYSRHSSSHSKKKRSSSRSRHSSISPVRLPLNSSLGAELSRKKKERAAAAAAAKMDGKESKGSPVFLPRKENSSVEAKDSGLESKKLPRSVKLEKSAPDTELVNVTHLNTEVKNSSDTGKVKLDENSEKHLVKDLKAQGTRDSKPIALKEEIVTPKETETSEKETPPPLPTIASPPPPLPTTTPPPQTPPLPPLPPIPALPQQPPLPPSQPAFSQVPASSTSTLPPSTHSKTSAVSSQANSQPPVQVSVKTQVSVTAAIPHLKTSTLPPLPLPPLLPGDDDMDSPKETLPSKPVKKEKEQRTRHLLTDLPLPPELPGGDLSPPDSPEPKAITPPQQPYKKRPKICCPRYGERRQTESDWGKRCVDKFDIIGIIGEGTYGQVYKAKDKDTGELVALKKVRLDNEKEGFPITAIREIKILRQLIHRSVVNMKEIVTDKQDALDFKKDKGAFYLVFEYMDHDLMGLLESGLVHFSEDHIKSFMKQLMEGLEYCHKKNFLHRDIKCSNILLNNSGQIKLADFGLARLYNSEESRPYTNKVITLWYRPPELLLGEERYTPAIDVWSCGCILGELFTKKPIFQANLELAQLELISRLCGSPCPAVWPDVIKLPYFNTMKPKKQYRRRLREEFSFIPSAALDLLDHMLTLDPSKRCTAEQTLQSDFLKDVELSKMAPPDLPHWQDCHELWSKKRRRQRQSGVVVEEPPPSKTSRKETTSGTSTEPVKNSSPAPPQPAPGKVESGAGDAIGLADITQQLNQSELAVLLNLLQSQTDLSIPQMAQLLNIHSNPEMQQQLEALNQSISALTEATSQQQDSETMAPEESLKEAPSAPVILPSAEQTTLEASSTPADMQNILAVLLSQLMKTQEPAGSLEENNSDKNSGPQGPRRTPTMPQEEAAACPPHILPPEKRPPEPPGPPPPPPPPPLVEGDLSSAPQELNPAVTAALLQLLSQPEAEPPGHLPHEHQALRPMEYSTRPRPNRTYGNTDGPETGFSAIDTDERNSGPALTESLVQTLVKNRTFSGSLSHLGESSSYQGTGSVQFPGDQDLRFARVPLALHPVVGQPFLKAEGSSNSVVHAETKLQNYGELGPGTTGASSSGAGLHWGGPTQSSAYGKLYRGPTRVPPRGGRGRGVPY
Sequence of CDK12 (O75909 whole entry partner): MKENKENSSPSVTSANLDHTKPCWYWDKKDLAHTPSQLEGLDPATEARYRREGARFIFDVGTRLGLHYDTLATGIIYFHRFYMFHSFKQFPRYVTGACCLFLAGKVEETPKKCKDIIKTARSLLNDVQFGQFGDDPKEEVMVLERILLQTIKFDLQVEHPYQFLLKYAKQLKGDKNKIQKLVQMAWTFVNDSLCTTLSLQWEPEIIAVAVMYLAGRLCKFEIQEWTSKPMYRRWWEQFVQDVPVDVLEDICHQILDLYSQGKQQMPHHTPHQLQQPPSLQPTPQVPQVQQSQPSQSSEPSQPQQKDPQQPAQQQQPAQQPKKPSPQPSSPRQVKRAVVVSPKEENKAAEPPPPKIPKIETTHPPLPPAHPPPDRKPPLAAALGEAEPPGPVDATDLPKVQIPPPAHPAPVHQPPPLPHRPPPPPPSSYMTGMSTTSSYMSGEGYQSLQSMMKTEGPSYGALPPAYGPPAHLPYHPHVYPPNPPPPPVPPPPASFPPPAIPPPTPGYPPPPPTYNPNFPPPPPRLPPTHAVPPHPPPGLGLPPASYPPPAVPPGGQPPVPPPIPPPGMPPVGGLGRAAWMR

In the case of `Cc1nc2ccccc2n1-c1nc(Nc2cccc(S(N)(=O)=O)c2)ncc1F` [Compound 4f, 3-((5-fluoro-4-(2-methyl-1H-benzo[d]imidazol-1-yl)pyrimidin-2-yl)amino)benzenesulfonamide], the 50% inhibitory concentration (IC50) is 33.5 ± 2 µM in experiment [1]; 0.762 ± 0.033 µM on CDK9; 21.7 ± 1.7 µM in experiment [2]; 23.6 ± 1.7 µM in experiment [3]; 1.14 ± 0.044 µM against CDK12; 41.2 ± 2.5 µM in experiment [4]. The IC50 in experiment [5] was found to be 15.4 ± 1.2 µM.
On to `CC(C)c1nc2ccccc2n1-c1ccnc(Nc2cccc(S(N)(=O)=O)c2)n1` [Compound 4 m, 3-((4-(2-isopropyl-1H-benzo[d]imidazol-1-yl)pyrimidin-2-yl)amino)benzenesulfonamide], for which the half-maximal inhibitory concentration (IC50) is 7.19 ± 0.5 µM in experiment [1]; 0.04 ± 0.002 µM at CDK9; 2.18 ± 0.1 µM in experiment [2]; 6.39 ± 0.4 µM in experiment [3]; 0.06 ± 0.002 µM at CDK12; more than 50 µM in experiment [4]. Further, in experiment [5], the IC50 was 3.56 ± 0.2 µM.
Turning to `NS(=O)(=O)c1cccc(Nc2nccc(-n3c(C(F)(F)F)nc4ccccc43)n2)c1` [Compound 4i, 3-((4-(2-(trifluoromethyl)− 1H-benzo[d]imidazol-1-yl)pyrimidin-2-yl)amino)benzenesulfonamide], the 50% inhibitory concentration (IC50) in experiment [1] is more than 50 µM; against CDK9, 1.09 ± 0.047 µM; in experiment [2], more than 50 µM; in experiment [3], more than 50 µM; on CDK12, 0.365 ± 0.014 µM; in experiment [4], more than 50 µM. Moreover, in experiment [5], the half-inhibitory concentration (IC50) worked out at 48.3 ± 2.7 µM.

By IC50 is commonly meant the point on the concentration scale where inhibition reaches its midpoint.
